The text below walks through data of patent US20150306086A1, “MODULATING CERTAIN TYROSINE KINASES” (Tesaro, Inc., priority 2011, published 2015).

Like-named read-outs stand apart in the source and are kept apart here.

In data set [1] the target is T1, cytoplasmic domain (amino acids 1058-1620) of wild-type human ALK (Homo sapiens, UniProt Q9UM73).
T1 construct: cytoplasmic domain (amino acids 1058-1620) of wild-type human ALK; GST (N); made in house; host or cells: SF9 cells
Briefly: ALK inhibition in enzyme assay (Lance TR-FRET). It is filed as biochemical.

In data set [2] the target is RET(S 891A) (Homo sapiens, UniProt P07949, S891A). Briefly: Off-chip mobility shift kinase assay, RET [S891A]. It is filed as biochemical. The settings on record: CSKtide 1000 nM, ATP 10 μM, Mg 5 mM.
Data set [3] deals with FAK (Homo sapiens, UniProt Q05397). Briefly: Off-chip mobility shift kinase assay, FAK. The class given is biochemical. The settings on record: Blk/Lyntide 1000 nM, ATP 25 μM, Mg 5 mM.
Data set [4] concerns the target RET(Y791F) (Homo sapiens, UniProt P07949, Y791F). Briefly: Off-chip mobility shift kinase assay, RET [Y791F]. The class given is biochemical. The settings on record: CSKtide 1000 nM, ATP 25 μM, Mg 5 mM.
For data set [5], the target named is RET(M918T) (Homo sapiens, UniProt P07949, M918T). Briefly: Off-chip mobility shift kinase assay, RET [M918T]. The settings on record: CSKtide 1000 nM, ATP 5 μM, Mg 5 mM. It is filed as biochemical.
Data set [6] concerns the target RET (Homo sapiens, UniProt P07949). Briefly: Off-chip mobility shift kinase assay, RET. The class given is biochemical. The settings on record: CSKtide 1000 nM, ATP 10 μM, Mg 5 mM.
Data set [7] deals with TRKB (Homo sapiens, UniProt Q16620). Briefly: Off-chip mobility shift kinase assay, TRKB. The class given is biochemical. The settings on record: Srctide 1000 nM, ATP 75 μM, Mg 5 mM.
For data set [8], the target named is TRKC (Homo sapiens, UniProt Q16288). Briefly: Off-chip mobility shift kinase assay, TRKC. It is filed as biochemical. The settings on record: Srctide 1000 nM, ATP 50 μM, Mg 5 mM.
Data set [9] has as its target KDR (Homo sapiens, UniProt P35968). Briefly: Off-chip mobility shift kinase assay, KDR. The settings on record: CSKtide 1000 nM, ATP 75 μM, Mg 5 mM. The class given is biochemical.
In data set [10] the target is FLT1 (Homo sapiens, UniProt P17948). Briefly: Off-chip mobility shift kinase assay, FLT1. The class given is biochemical. The settings on record: CSKtide 1000 nM, ATP 150 μM, Mg 5 mM, reaction time 5 hours.
Data set [11] has as its target FLT4 (Homo sapiens, UniProt P35916). Briefly: Off-chip mobility shift kinase assay, FLT4. It is filed as biochemical. The settings on record: CSKtide 1000 nM, ATP 75 μM, Mg 5 mM.
The target in data set [12] is EGFR(T790M) (Homo sapiens, UniProt P00533, T790M). Briefly: Off-chip mobility shift kinase assay, EGFR [T790M]. It is filed as biochemical. The settings on record: Srctide 1000 nM, ATP 1 μM, Mg + Mn 5 + 1 mM.
The target of data set [13] is RET(G691S) (Homo sapiens, UniProt P07949, G691S). Briefly: Off-chip mobility shift kinase assay, RET [G691S]. It is filed as biochemical. The settings on record: CSKtide 1000 nM, ATP 10 μM, Mg 5 mM.
Data set [14] addresses TRKA (Homo sapiens, UniProt P04629). Briefly: Off-chip mobility shift kinase assay, TRKA. The class given is biochemical. The settings on record: CSKtide 1000 nM, ATP 75 μM, Mg 5 mM.
Data set [15] addresses T2, FLT3 (Homo sapiens, UniProt P36888).
T2 sequence (P36888 27-993): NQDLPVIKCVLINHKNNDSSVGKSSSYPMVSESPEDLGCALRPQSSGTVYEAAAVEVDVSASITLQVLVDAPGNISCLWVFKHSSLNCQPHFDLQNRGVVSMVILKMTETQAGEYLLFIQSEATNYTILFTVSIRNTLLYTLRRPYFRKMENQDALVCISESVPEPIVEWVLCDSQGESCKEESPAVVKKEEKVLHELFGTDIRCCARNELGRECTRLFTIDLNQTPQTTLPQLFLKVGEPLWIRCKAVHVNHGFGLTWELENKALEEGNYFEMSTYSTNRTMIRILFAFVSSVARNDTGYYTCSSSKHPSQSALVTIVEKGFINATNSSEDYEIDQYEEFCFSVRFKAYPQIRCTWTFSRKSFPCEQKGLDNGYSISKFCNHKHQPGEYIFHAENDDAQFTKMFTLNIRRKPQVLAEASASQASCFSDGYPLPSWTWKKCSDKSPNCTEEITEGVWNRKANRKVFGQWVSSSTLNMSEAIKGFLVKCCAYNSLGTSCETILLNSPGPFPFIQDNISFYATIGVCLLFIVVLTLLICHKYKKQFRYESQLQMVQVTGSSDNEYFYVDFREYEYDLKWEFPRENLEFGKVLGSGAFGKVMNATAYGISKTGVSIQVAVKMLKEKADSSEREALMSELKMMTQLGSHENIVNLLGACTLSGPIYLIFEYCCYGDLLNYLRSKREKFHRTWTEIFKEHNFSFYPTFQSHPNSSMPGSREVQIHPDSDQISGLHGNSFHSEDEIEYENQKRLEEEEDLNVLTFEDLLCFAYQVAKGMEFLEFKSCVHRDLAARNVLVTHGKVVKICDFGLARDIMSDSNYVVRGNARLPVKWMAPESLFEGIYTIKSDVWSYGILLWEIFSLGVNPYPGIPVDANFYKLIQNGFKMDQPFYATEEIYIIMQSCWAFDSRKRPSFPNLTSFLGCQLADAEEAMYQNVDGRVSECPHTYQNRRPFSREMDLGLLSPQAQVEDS
Briefly: Off-chip mobility shift kinase assay, FLT3. The settings on record: Srctide 1000 nM, ATP 100 μM, Mg 5 mM. It is filed as biochemical.

In data set [16] the target is T3, NGF (Homo sapiens, UniProt P01138).
T3 construct: host or cells: patients (endogenous NGF)
The settings on record: osteoarthritis pain study, cited from earlier work.

Usually IC50 stands for the midpoint of a concentration-inhibition curve. On to `CC(C)N(C)C(=O)[C@H]1CC[C@@H](n2/c(=N/C(=O)c3ccc(F)cc3)[nH]c3cnc(CN4CCCCC4)cc32)CC1` [Example 46], for which the IC50 in [1] was less than 0.05 µM.
Consider `CC(=O)[C@H]1CC[C@@H](n2/c(=N/C(=O)c3cccc(F)c3)[nH]c3ccc(CO)cc32)CC1` [Example 70], for which, in data set [1], the concentration for half-maximal inhibition (IC50) lay in the range of 1 to 5 µM.
For `CCOC(=O)[C@H]1CC[C@@H](n2/c(=N/C(=O)c3cccc(F)c3)[nH]c3cnc(OCCN4CCC(C(C)(C)O)CC4)cc32)CC1` [Example 79], the 50% inhibitory concentration (IC50) in data set [1] lay in the range of 1 to 5 µM.
For the compound `CNC(=O)[C@]1(O)CC[C@@H](n2/c(=N/C(=O)c3ccc(F)cc3)[nH]c3cnc(OCCN4CCCCC4)cc32)CC1` [Example 82], the IC50 in data set [1] lay within 1 to 5 µM.
On the same count and under the same terms, then `CNC(=O)[C@]1(O)CC[C@H](n2/c(=N/C(=O)c3ccc(F)cc3)[nH]c3cnc(OCCN4CCCCC4)cc32)CC1` [Example 83], with 0.1 to 1 µM; and `COC(=O)[C@H]1CC[C@@H](n2/c(=N/C(=O)c3ccc(F)cc3)[nH]c3cnc(CN4CCOCC4)cc32)CC1` [Example 85], with less than 0.05 µM.
On the same count and under the same terms, then `CC(C)NC(=O)[C@H]1CC[C@@H](n2/c(=N/Cc3ccc4ccsc4c3)[nH]c3cnc(OCCN4CCCCC4)cc32)CC1` [Example 87], with 0.05 to 0.1 µM; and `O=C(/N=c1\[nH]c2cnc(OCCN3CCCCC3)cc2n1[C@H]1CC[C@@H](C(=O)N2CCNCC2)CC1)c1ccc(F)cc1` [Example 124], with 0.1 to 1 µM; and `CC(C)NC(=O)[C@H]1CC[C@@H](n2/c(=N/C(=O)c3cccc(F)c3)[nH]c3cnc(OCCN4CCC(C(C)(C)O)CC4)cc32)CC1` [Example 130], with less than 0.05 µM.
Same read-out and setting: then `C=CCNS(=O)(=O)c1cccc(C(=O)/N=c2\[nH]c3cnc(OCCN4CCC(C(C)(C)O)CC4)cc3n2[C@H]2CC[C@H](C(=O)NC(C)C)CC2)c1` [Example 131], with 0.1 to 1 µM; and `CC(C)NC(=O)[C@H]1CC[C@@H](n2/c(=N/C(=O)c3ccc(F)c(C#N)c3)[nH]c3ccc(CN4CCC(C(C)(C)O)CC4)cc32)CC1` [Example 146], with less than 0.05 µM; and `CC(C)NC(=O)[C@H]1CC[C@@H](N2c3cc(O)ccc3NC2NC(=O)c2ccc(F)cc2)CC1` (stereo partly drawn) [Example 154], with less than 0.05 µM.
In data set [1], `CC(C)NC(=O)[C@H]1CC[C@@H](n2/c(=N/C(=O)c3ccc(F)cc3)[nH]c3ccc(CN4CCN(S(=O)(=O)O)CC4)cc32)CC1` [Example 172] yielded an IC50 of less than 0.05 µM.
The same measure, in the same setting: then `CC(C)NC(=O)[C@H]1CC[C@@H](n2/c(=N/C(=O)c3ccc(F)cc3)[nH]c3ccc(CN4CCN(C(N)=O)CC4)cc32)CC1` [Example 177], with less than 0.05 µM.
Turning to `CC(C)C(=O)N[C@H]1CC[C@@H](n2/c(=N/C(=O)c3ccc(F)cc3)[nH]c3cnc(CN4CCC(C(C)(C)O)CC4)cc32)CC1` [Example 227], the concentration for half-maximal inhibition (IC50) in data set [1] fell in the range of 0.05 to 0.1 µM.
The compound `CC(=O)N[C@H]1CC[C@H](n2/c(=N/C(=O)c3cccc(F)c3)[nH]c3ccc(CN4CCC(C(C)(C)O)CC4)cc32)CC1` [Example 229] gave an IC50 in data set [1] of 0.05 to 0.1 µM.
Take `CCCNS(=O)(=O)c1cccc(C(=O)/N=c2\[nH]c3cnc(OCCN4CCCCC4)cc3n2C2CCC(C(N)=O)CC2)c1` (stereo not drawn) [Example 244]: the concentration for half-maximal inhibition (IC50) in data set [1] (2 nM enzyme, ATP 40 μM (Km apparent), 90 minutes, mean of three replicates) lay in the range of 0.05 to 0.1 µM.
For `CC(C)NC(=O)[C@H]1CC[C@@H](n2/c(=N/C(=O)c3ccc(F)cc3)[nH]c3ccc(CN4CCC(C(C)(C)O)CC4)cc32)CC1` [I-a], the concentration for half-maximal inhibition (IC50) in data set [2], in data set [3], in data set [4], in data set [5], in data set [6] and in [7] was 0.001 to 0.1 µM each time. For the same compound, the IC50 in data set [8] was 0.001 to 0.1 µM; in data set [9], more than 1 µM; in data set [10], more than 1 µM; in data set [11], more than 1 µM; in [12], more than 1 µM; in data set [13] it was 0.001 to 0.1 µM. In addition, the IC50 in data set [14] was less than 0.001 µM.
For the compound `CC(C)NC(=O)[C@H]1CC[C@@H](n2/c(=N/C(=O)c3cc(F)cc(F)c3)[nH]c3ccc(CN4CCC(C(C)(C)O)CC4)cc32)CC1` [I-b], the IC50 was 0.001 to 0.1 µM in data set [15]; 0.101 to 0.5 µM in data set [2]; 0.101 to 0.5 µM in data set [3]; more than 1 µM in data set [4]; more than 1 µM in [5]; more than 1 µM in [6]. The IC50 in data set [7] is 0.001 to 0.1 µM; in data set [8], 0.001 to 0.1 µM; in [9] it was more than 1 µM; in [10] it was more than 1 µM; in data set [11], more than 1 µM; in [12], more than 1 µM. Further, the figures for the IC50 in data set [13] and in [14] were more than 1 µM and 0.001 to 0.1 µM, respectively.
As for tanezumab, in data set [16] (among patients), the “adverse event: headache” value is on record as 9%, the “adverse event: paresthesia” value is reported as 7% and the “adverse event: upper respiratory infection” value was 7%. Further, the “rate of adverse events” value in data set [16] (55% in placebo group) was 68%.
